The source of these data is ChEMBL document CHEMBL5226325, “Optimization of a Screening Hit toward M2912, an Oral Tankyrase Inhibitor with Antitumor Activity in Colorectal Cancer Models” (J Med Chem, 2021).

Active and inactive are the calls of the source.

Data set [1] in a line: Hepatic blood flow in dog. Format: ADME, Canis lupus familiaris.
The nature of data set [2]: Volume of distribution at steady state in mouse. Format: ADME, organism-based. The note with it: in vivo, read-out: Vdss.
A short description of data set [3]: In vivo inhibition of Wnt pathway in Hsd athymic nude mouse xenografted with human DLD1 cells assessed as increase in tankyrase protein level in tumor at 10 to 30 mg/kg, po administered as single dose and measured after 2 to 8 hrs. Format: functional, organism-based. Particulars: DLD-1, dose 10-30 mg/kg, time 2-8 hrs. A general note: Xenograft models place foreign cells or tissue in a host animal.

Data set [4] is described as follows: Oral bioavailability in monkey. Format: ADME, organism-based, Macaca mulatta. The note with it: rhesus monkey, in vivo.
Data set [5] is described as follows: Toxicity in CB17-SCID mouse xenografted with human COLO 320 cells assessed as reduction in body weight at 20 mg/kg, po administered twice daily via gavage for 20 days and measured twice weekly. Format: organism-based. The note with it: in vivo, 480 h, time 20 day.
Data set [6] in a line: Oral bioavailability in rat. The format is ADME, organism-based. Particulars: in vivo.
The test system of data set [7] is HT55. Kind of data set: Antitumor activity against human HT55 cells xenografted in CD-1 nude mouse assessed as tumor growth inhibition at 20 mg/kg, po, administered twice daily via gavage and measured twice weekly. Format: functional, organism-based.
A short description of data set [8]: Half life in monkey. The format is ADME, Macaca mulatta. Particulars: rhesus monkey, in vivo.
Data set [9] has as its system HCT-15. Kind of data set: Cytotoxicity against human HCT-15 cells assessed as reduction in cell growth at 0.01 to 10 uM incubated for 14 days by resazurin dye based assay. Format: functional. Particulars: dose 0.01-10 µM, time 14.0 day.
Data set [10] in a line: Unbound fraction in mouse plasma. Format: ADME, cell-free.
The target of data set [11] is T1, Poly [ADP-ribose] polymerase tankyrase-2 (Homo sapiens, UniProt Q9H2K2).
T1 sequence (Q9H2K2 whole entry): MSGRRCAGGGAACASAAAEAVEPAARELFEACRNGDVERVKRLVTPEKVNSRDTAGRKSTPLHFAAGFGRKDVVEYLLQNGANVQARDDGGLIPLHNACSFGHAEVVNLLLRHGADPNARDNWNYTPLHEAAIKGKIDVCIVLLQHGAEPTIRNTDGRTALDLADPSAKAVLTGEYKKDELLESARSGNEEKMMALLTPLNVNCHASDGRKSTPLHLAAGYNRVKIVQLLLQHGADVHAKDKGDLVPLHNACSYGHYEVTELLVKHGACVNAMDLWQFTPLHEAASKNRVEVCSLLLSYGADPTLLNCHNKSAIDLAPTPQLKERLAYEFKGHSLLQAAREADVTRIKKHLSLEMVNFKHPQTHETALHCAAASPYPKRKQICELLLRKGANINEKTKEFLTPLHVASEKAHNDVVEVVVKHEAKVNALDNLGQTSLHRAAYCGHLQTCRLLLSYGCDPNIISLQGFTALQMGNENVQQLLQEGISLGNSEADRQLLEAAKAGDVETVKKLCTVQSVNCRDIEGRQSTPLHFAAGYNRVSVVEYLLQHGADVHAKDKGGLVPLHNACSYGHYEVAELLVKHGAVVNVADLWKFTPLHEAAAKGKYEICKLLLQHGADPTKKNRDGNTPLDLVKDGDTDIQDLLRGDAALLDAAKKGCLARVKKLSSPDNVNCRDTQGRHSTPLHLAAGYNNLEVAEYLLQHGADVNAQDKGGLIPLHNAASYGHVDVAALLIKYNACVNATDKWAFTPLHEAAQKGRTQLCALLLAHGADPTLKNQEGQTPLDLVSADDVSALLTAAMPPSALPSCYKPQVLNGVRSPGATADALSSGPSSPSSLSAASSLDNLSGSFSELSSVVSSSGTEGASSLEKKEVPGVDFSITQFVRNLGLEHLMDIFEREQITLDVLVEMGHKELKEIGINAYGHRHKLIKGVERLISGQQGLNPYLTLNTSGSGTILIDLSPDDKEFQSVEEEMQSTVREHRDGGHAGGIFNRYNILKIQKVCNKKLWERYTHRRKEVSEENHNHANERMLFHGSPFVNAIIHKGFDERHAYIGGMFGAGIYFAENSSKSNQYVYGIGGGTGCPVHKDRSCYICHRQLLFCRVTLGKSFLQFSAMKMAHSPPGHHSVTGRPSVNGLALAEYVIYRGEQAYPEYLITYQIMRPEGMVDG
The data set can be described thus: Inhibition of TNKS2 (unknown origin).

For data set [12], the target named is Protein mono-ADP-ribosyltransferase PARP11 (Homo sapiens, UniProt Q9NR21). The data set can be described thus: Inhibition of N-terminal GST-tagged/C-terminal 6xHis-tagged human recombinant PARP11 (8 to 338 residues) expressed in Sf9 insect cells by chemiluminescence assay.
Data set [13] is described as follows: In vivo inhibition of Wnt pathway in Hsd athymic nude mouse xenografted with human DLD1 cells assessed as increase in axin2 protein level in tumor at 10 to 30 mg/kg, po administered as single dose and measured after 18 hrs. Particulars: DLD-1, dose 10-30 mg/kg. The format is functional, organism-based.
Data set [14] is described as follows: Unbound fraction in human plasma. Format: ADME, cell-free.
For data set [15], the target named is T1, Poly [ADP-ribose] polymerase tankyrase-2. The data set can be described thus: Inhibition of TNKS2 (unknown origin) using biotinylated NAD as substrate assessed as inhibition of autoPARsylation activity incubated for 1 hr by ELISA. (In general: In an ELISA, binding on a coated surface is turned into a signal by an enzyme label.)
Data set [16] can be described thus: Unbound fraction in dog plasma. The format is ADME, cell-free, Canis lupus familiaris.
Data set [17] can be described thus: Toxicity in […] xenografted with human HT55 cells assessed as reduction in body weight at 20 mg/kg, po administered twice daily via gavage for 20 days and measured twice weekly. Format: organism-based. The note with it: in vivo, 480 h, time 20 day.
Data set [18] concerns COLO 320. The data set can be described thus: Antitumor activity against human COLO 320 cells xenografted in CB17-SCID mouse assessed as tumor growth inhibition at 20 mg/kg, po, administered twice daily via gavage and measured twice weekly. Format: functional, organism-based.
Data set [19] in a line: Toxicity in CB17-SCID mouse xenografted with human COLO 320 cells assessed as drug tolerance at 15 mg/kg, po administered twice daily via gavage for 20 days. Format: organism-based. The note with it: in vivo, 480 h, time 20 day.
Data set [20] addresses Poly [ADP-ribose] polymerase 1 (Homo sapiens, UniProt P09874). The data set can be described thus: Inhibition of PARP-1 (unknown origin) using biotinylated NAD and NAD as substrate assessed as inhibition of auto-PARsylation incubated for 150 mins by TR-FRET assay.

Protein mono-ADP-ribosyltransferase PARP11, sequence (Q9NR21 whole entry, the tested form may be a part): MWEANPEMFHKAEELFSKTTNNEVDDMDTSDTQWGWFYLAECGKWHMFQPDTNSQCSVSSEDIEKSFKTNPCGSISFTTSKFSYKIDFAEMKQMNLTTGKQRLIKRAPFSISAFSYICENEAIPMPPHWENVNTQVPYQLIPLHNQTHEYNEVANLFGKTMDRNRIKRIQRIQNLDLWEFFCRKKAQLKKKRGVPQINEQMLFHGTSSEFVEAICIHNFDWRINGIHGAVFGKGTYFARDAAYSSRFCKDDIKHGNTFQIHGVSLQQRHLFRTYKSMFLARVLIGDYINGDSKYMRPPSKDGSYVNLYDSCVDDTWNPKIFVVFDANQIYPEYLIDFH
Poly [ADP-ribose] polymerase 1, sequence (P09874 whole entry): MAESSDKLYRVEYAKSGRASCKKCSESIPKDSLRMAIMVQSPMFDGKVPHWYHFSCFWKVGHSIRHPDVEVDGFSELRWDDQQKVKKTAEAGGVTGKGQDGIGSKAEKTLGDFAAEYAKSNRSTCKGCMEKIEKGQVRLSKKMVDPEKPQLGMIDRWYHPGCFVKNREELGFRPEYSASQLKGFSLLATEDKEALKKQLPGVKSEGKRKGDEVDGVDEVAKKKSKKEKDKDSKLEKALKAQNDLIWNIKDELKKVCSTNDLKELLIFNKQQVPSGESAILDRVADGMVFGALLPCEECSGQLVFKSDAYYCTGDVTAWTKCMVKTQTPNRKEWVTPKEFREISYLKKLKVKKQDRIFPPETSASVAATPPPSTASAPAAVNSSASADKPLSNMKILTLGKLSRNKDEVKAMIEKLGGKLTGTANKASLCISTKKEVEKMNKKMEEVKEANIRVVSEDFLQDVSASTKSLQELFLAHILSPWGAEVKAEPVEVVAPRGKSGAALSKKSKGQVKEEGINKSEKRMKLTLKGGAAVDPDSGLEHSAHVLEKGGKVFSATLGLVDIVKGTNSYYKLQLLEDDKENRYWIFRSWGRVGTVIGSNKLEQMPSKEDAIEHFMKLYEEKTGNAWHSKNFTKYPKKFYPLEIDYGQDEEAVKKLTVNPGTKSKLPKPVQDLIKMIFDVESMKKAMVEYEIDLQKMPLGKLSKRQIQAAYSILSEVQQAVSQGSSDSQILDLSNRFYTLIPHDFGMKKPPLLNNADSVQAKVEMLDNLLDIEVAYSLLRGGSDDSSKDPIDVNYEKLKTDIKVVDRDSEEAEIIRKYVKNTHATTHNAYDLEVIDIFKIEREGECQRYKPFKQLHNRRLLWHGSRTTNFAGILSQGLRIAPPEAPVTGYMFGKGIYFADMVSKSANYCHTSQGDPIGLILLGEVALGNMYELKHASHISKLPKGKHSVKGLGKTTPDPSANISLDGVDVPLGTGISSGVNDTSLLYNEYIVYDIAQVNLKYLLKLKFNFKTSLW

Regarding `Cc1ccc2c(=O)[nH]c(-c3ccc(C(C)(C)O)cc3)cn12`, in data set [1], the QH was 130%. Also, the Vd in data set [2] worked out at 2.43 L/kg. Moreover, the inhibition result in data set [3] was “Active”. The bioavailability (usually the share of a dose that reaches the circulation, judged against a reference dose that is usually intravenous) in data set [4] was determined as 6.7%; in [6], 41%. Besides, the Activity result in [5], in [17] and in [19] was “Non-Toxic” in each case. Also, the result in data set [7] and in [18] was Active. In addition, in data set [8], the half-life (usually the time needed for the level to fall by half in the phase considered) was 1.01 h. Besides, the outcome in data set [9] was inactive. In addition, the fraction unbound (as a rule, the share of the substance not bound to proteins or other matrix) in [10] is 0.16; in [14], 0.096; in data set [16] it was 0.14. Moreover, the IC50 (in general, the point on the concentration scale where inhibition reaches its midpoint) stood at 1.4 nM in data set [11], 67 nM in data set [12], 0.9 nM in [15] and 928 nM in data set [20]. In addition, the inhibition result in data set [13] was “inactive”.
